Measurements published in patent US20260144784A1, “COMPOSITION FOR PREVENTING OR TREATING MELAS SYNDROME, CONTAINING ISOPQUINOLINE DERIVATIVE AS ACTIVE INGREDIENT” (ALTMEDICAL CO., LTD., priority 2022, published 2026).

What was measured:
BEAS-2B cell line [1] = assay: mitophagy activity, mt-Keima fluorescent protein in BEAS-2B cells (FACS, confocal microscope, mito-YFP); type: cell-based, human; settings: BEAS-2B mt-Keima
Experimental: To analyze the mitophagy-promoting activity effect of the CD1-012 synthesized in the Example 1, the BEAS-2B cell line, which is a human normal lung cell line, was induced to express the mt-Keima fluorescent protein. Following this, the CD1-012 (15 μM) and the compound of Comparative Example 1, CCCP (10 μM), were treated for 24 hours. After the treatment, the mitophagy activity of each sample was measured, and the results were represented in FIGS. 1A to 1C.
Specifically, FIG. 1A represents the analysis results using flow cytometry (FACS) (treatment of CD1-012 at 15 μM for 24 hours), FIG. 1B represents the analysis results using a confocal microscope (treatment of CD1-012 at 15 μM for 18 hours), and FIG. 1C represents the measurement results of the quantitative changes in the mitochondria using a fluorescent protein, mito-YFP, which includes a targeting sequence to transport protein to the mitochondria (treatment of CD1-012 at 20 μM for 24 hours).
It was confirmed whether CD1-012 synthesized in Example 1 promotes mitophagy activity in a concentration- and time-dependent manner. To this end, the CD1-012 was treated at various concentrations or at a fixed concentration (15 μM) for different treatment durations in the BEAS-2B cell line expressing mt-Keima, and mitophagy activity was measured using a flow cytometer.
(§1) It was confirmed whether CD1-012 synthesized in Example 1 specifically increases only mitophagy activity. To this end, the BEAS-2B cell line expressing mt-Keima was treated with CD1-012 (15 μM) or Comparative Example 1 (CCCP, 10 μM) for 18 hours, and mitophagy activity was analyzed using a confocal microscope. Additionally, to measure autophagy activity, the BEAS-2B cell line expressing Keima fluorescent protein was incubated in Hanks' balanced salt solution (HBSS) for 3 hours to induce a starvation condition (starv.), and the results were compared with samples treated with CD1-012 (15 μM) for 18 hours using a confocal microscope.
To this end, the human normal lung cell line BEAS-2B, expressing mt-Keima fluorescent protein, was treated with CD1-012, Comparative Example 2 (palmatine), or Comparative Example 3 (berberine) at various concentrations, and the mitophagy-inducing activity of each sample was compared.

[2] = test system: MELAS syndrome patient-derived cells; assay: ATP levels in MELAS syndrome patient-derived cells; type: cell-based, human; settings: 40 μM for 24 hours, measured 2 days later, untreated 76%
Experimental: In this example, it was confirmed whether the compound according to the present invention can improve mitochondrial dysfunction in MELAS syndrome patient-derived cells. CD1-012 was treated in MELAS syndrome patient-derived cells at a concentration of 40 μM for 24 hours, and ATP levels were measured 2 days later. As a result, it was confirmed that the ATP levels in MELAS syndrome patient-derived cells, which had decreased to 76% of those in normal cells, were restored to 95% of normal levels by CD1-012 treatment (FIG. 13).

[3] = test system: mitochondrial reactive oxygen species (ROS); assay: mitochondrial reactive oxygen species, MitoSOX assay; type: cell-based; settings: CD1-012 10 μM or 15 μM, CCCP 10 μM, 24 hours
Experimental: (§2) It was confirmed whether the isoquinoline derivative according to the present invention induces mitochondrial dysfunction, similar to CCCP. To this end, the CD1-012 (10 μM or 15 μM) and CCCP (10 μM) were treated for 24 hours, and the mitochondrial membrane potential and mitochondrial reactive oxygen species (ROS) levels in each sample were analyzed. Mitochondrial membrane potential was analyzed using the TMRM (tetramethylrhodamine methyl ester) assay, and mitochondrial ROS levels were analyzed using the MitoSOX assay.

143B MELAS cell line [4] = assay: ATP synthesis in 143B MELAS cell line; type: cell-based; settings: 40 μM for 24 hours, measured 2 days later
Experimental: As confirmed through the previous examples, the compound according to the present invention can promote mitophagy in MELAS syndrome cells, and in the present example, it was confirmed whether the compound can improve mitochondrial dysfunction in MELAS syndrome cells. For this purpose, CD1-012 (40 μM) was treated in the 143B MELAS cell line for 24 hours, and ATP synthesis was measured 2 days later.

143B MELAS cell line [5] = assay: mitochondrial protein levels by Western blot in MELAS cell line; type: cell-based; settings: FIG. 9C
Source text: (§3) In the previous example, it was confirmed that mitochondrial dysfunction occurs in the MELAS syndrome cell line, and in the present example, it was confirmed whether the compound according to the present invention can promote mitophagy in the MELAS syndrome cell line. In order to verify the mitophagy activity-promoting effect of the CD1-012 compound in the 143B MELAS cell line, a mitophagy quantification method using the mt-Keima fluorescent protein, which enables quantitative measurement of mitophagy activity in live cells, was used (2015 Mol Cell, 60 (4): 685-696.doi: 10.1016/j.molcel.2015.10.009:2018 J Vis Exp. (138): 58099 doi: 10.3791/58099.). Specifically, mt-Keima fluorescent protein was expressed in the 143B MELAS cell line, and after treatment with CD1-012 at various concentrations, mitophagy activity was measured using a mitophagy activity measurement method using a fluorescence-activated cell sorter (FACS) or a confocal microscope. […] Additionally, as a result of investigating the reduction of mitochondrial proteins associated with increased mitophagy activity by Western blot, it was confirmed that the levels of SDHA and COX4 proteins decreased when treated with CD1-012 at concentrations of 10 μM or higher (FIG. 9C).

SH-SYSY cell line = assay: mitophagy activity by flow cytometry in SH-SY5Y cells expressing mt-Keima; type: cell-based, human; settings: FACS
Experimental: (§4) It was confirmed whether CD1-012 synthesized in Example 1 increases mitophagy activity in various cell lines. To this end, CD1-012 and Comparative Example 1 (CCCP) were treated in the SH-SYSY cell line, a human neuroblastoma cell line expressing mt-Keima fluorescent protein, and in the HeLa-Parkin cell line, a HeLa cervical cancer cell line expressing Parkin (E3 ligase). Following this treatment, the mitophagy activity of each sample was analyzed using flow cytometry (FACS), and the results are shown in FIGS. 2A to 2B.

HeLa-Parkin cell line = assay: mitophagy activity by flow cytometry in HeLa-Parkin cells; type: cell-based; settings: FACS
Experimental: as §4

143B MELAS cell line [6] = assay: mitophagy activity, mt-Keima in 143B MELAS cell line (FACS, confocal microscope); type: cell-based; settings: 143B MELAS mt-Keima
Source text: as §3

[7] = test system: mitochondrial membrane potential; assay: mitochondrial membrane potential, TMRM assay; type: cell-based; settings: CD1-012 10 μM or 15 μM, CCCP 10 μM, 24 hours
Experimental: as §2

BEAS-2B cell line [8] = assay: autophagy activity, Keima fluorescent protein in BEAS-2B cells (confocal microscope); type: cell-based, human; settings: BEAS-2B Keima; 15 μM 18 hours, FIG. 4B
Experimental: as §1

[9] = test system: MELAS syndrome patient-derived cells; assay: mitochondrial protein levels (SDHA, SDHB) by Western blot in MELAS syndrome patient-derived cells; type: cell-based, human; settings: 24 hours
Experimental: As confirmed in the previous example, mitochondrial dysfunction is observed in MELAS syndrome patient-derived cells, and in the present example, it was confirmed whether the compound according to the present invention can promote mitophagy activity in MELAS syndrome patient-derived cells. CD1-012 was treated in MELAS syndrome patient-derived cells at concentrations of 20 μM or 40 μM for 24 hours, and the levels of mitochondrial proteins SDHA and SDHB were analyzed by Western blot.

[10] = test system: PINK1 knockdown cell line (shPINK1); assay: mitophagy activity by FACS in PINK1 knockdown BEAS-2B cell line; type: cell-based, human; settings: CCCP 10 μM, CD1-012 15 μM, 18 hours
Experimental: In this example, it was confirmed whether the mitophagy activation function of the isoquinoline derivative according to the present invention is dependent on the PINK1-Parkin pathway. To this end, after a BEAS-2B cell line, in which PINK1 was knocked down using short hairpin RNA (shRNA), was treated with CCCP (10 μM) of Comparative Example 1 or CD1-012 (15 μM) for 18 hours, the mitophagy activity of each sample was analyzed using flow cytometry (FACS).

Q: Which “concentration at which mitophagy activity reached its maximum” value (BEAS-2B cell line [1]; FIG. 5) does the source give for `COc1cc2c(cc1OC)-c1cc3ccc(OC)c(OC)c3c[n+]1CC2` [palmatine, Palmatine, reference compound] here?
A: The value was 400 µM.

Q: How did the “ATP levels relative to normal cells” value [2] turn out when `Oc1cc2c(cc1O)-c1cc3ccc(O)c(O)c3c[n+]1CC2` [CD1-012, 2,3,9,10-Tetrahydroxy-5,6-dihydroisoquinolino [3,2-a]isoquinolin-7-iumbromide] was run?
A: Its value is 95%.

Q: What about the “mitochondrial ROS levels” value [3] of the same compound?
A: Its value is “no increase in mitochondrial ROS was detected”.

Q: And the “ATP level relative to the normal cell line levels” value (143B MELAS cell line [4])?
A: The value was 90%.

Q: And the “increase in ATP levels versus untreated MELAS cells” value (143B MELAS cell line [4])?
A: Its value is 131%.

Q: What about the ATP levels (143B MELAS cell line [4]; untreated MELAS cells 39.6 nM) of the same compound?
A: Its ATP levels is 51.9 nM.

Q: What about the “concentration at which the levels of SDHA and COX4 proteins decreased” value (143B MELAS cell line [5]) of the same compound?
A: The value was ≥ 10 µM.

Q: And the “mitophagy activity compared to the control group (Con)” value (SH-SYSY cell line)?
A: The value was “significantly increased mitophagy activity”.

Q: What about the “mitophagy activity compared to the control group (Con)” value (HeLa-Parkin cell line) of the same compound?
A: The value was “significantly increased mitophagy activity”.

Q: And the “concentration at which mitophagy activity in the MELAS cell line significantly increased (flow cytometry)” value (143B MELAS cell line [6]; FIG. 9A)?
A: Its value is ≥ 10 µM.

Q: What about the “mitophagy activity by confocal microscopy analysis” value (143B MELAS cell line [6]; 20 μM and 40 μM, FIG. 9B) of the same compound?
A: The value was “increase in mitophagy activity”.

Q: What about the mitochondrial membrane potential [7] of the same compound?
A: Its mitochondrial membrane potential is “no decrease in mitochondrial membrane potential was observed”.

Q: And the “autophagy activity compared to the untreated control group” value (BEAS-2B cell line [8])?
A: The value was “no significant difference in autophagy activity”.

Q: And the “mitochondrial protein levels (SDHA, SDHB) compared to the untreated control group” value ([9]; 20 μM)?
A: Its value is “decrease in mitochondrial protein levels”.

Q: What about the “mitochondrial protein expression (SDHA, SDHB) compared to the untreated control group” value ([9]; 40 μM) of the same compound?
A: The value was “more pronounced decrease in mitochondrial protein expression”.

Q: What about the “mitophagy activity compared with CCCP-treated sample (FIG. 1A)” value (BEAS-2B cell line [1]; FACS, 15 μM 24 hours vs CCCP 10 μM) of the same compound?
A: Its value is “increased as significantly as”.

Q: What about the “concentration at which mitophagy activity reached a level comparable to the maximum of palmatine and berberine” value (BEAS-2B cell line [1]; FIG. 5) of the same compound?
A: The value was 10 UM.

Q: What about the “mitophagy-inducing activity relative to berberine” value (BEAS-2B cell line [1]; FIG. 5) of the same compound?
A: The value was “approximately 8 times”.

Q: And the “mitophagy-inducing activity relative to palmatine” value (BEAS-2B cell line [1]; FIG. 5)?
A: Its value is “approximately 40 times”.

Q: What about the “concentration at which mitophagy activity began to significantly increase compared to untreated control” value (BEAS-2B cell line [1]; flow cytometer, FIG. 3A) of the same compound?
A: The value was ≥ 7.5 µM.

Q: And the “mitophagy-promoting effect compared with CCCP (confocal microscope)” value (BEAS-2B cell line [1]; 15 μM 18 hours vs CCCP 10 μM, FIG. 4A)?
A: The value was “mitophagy-promoting effects similar to those observed in the CCCP-treated sample”.

Q: And the “mitophagy activity compared to the untreated control group (Con)” value (BEAS-2B cell line [1]; 15 μM 24 hours (FACS), 15 μM 18 hours (confocal), 20 μM 24 hours (mito-YFP))?
A: The value was “significant increase in mitophagy activity”.

Q: And the “treatment time after which mitophagy activity began to significantly increase” value (BEAS-2B cell line [1]; 15 μM, FIG. 3B)?
A: The value was 3 h.

Q: And the “treatment time at which mitophagy activity reached its maximum level” value (BEAS-2B cell line [1]; 15 μM, FIG. 3B)?
A: The value was 18 h.

Q: What about the “concentration dependence of mitophagy activity” value (BEAS-2B cell line [1]; up to the maximum treatment concentration of 17.5 μM) of the same compound?
A: Its value is “continued to increase in a concentration-dependent manner”.

Q: What about the “mitophagy activation in PINK1 knockdown cell line (shPINK1) compared to control cell line (shNT)” value [10] of the same compound?
A: The value was “did not show a significant difference”.

Q: `N#CC(C#N)=NNc1cccc(Cl)c1` [CCCP, Carbonyl Cyanide 3-Chlorophenylhydrazone, reference compound] was tested. Which “mitochondrial ROS levels” value [3] did it give?
A: Its value is “significantly increased”.

Q: What about the mitochondrial membrane potential [7] of the same compound?
A: Its mitochondrial membrane potential is “significantly reduced”.

Q: And the “mitophagy activation in PINK1 knockdown cell line (shPINK1) compared to control cell line (shNT)” value [10]?
A: Its value is “significantly decreased”.

Q: For `COc1ccc2cc3[n+](cc2c1OC)CCc1cc2c(cc1-3)OCO2` [berberine, Berberine, reference compound], which “concentration at which mitophagy activity reached its maximum” value (BEAS-2B cell line [1]; FIG. 5) is on record?
A: The value was 80 µM.
